BigSolDB 2.1

Compound: O=C(O)c1ccccc1Nc1ccccc1
- solubility (mole fraction) (in ethanol, 283.15 K): 0.0101
- solubility (mole fraction) (in ethanol, 285.65 K): 0.0107
- solubility (mole fraction) (in ethanol, 288.15 K): 0.0112
- solubility (mole fraction) (in ethanol, 290.65 K): 0.0112
- solubility (mole fraction) (in ethanol, 293.15 K): 0.0123
- solubility (mole fraction) (in ethanol, 295.65 K): 0.0131
- solubility (mole fraction) (in ethanol, 298.15 K): 0.0136
- solubility (mole fraction) (in ethanol, 300.65 K): 0.0144
- solubility (mole fraction) (in ethanol, 303.15 K): 0.0154
- solubility (mole fraction) (in ethanol, 305.65 K): 0.0163
- solubility (mole fraction) (in ethanol, 308.15 K): 0.0175
- solubility (mole fraction) (in ethanol, 310.65 K): 0.0187
- solubility (mole fraction) (in ethanol, 313.15 K): 0.02
- solubility (mole fraction) (in ethanol, 315.65 K): 0.0221
- solubility (mole fraction) (in ethanol, 318.15 K): 0.0242
- solubility (mole fraction) (in methanol, 283.15 K): 0.00519
- solubility (mole fraction) (in methanol, 285.65 K): 0.00556
- solubility (mole fraction) (in methanol, 288.15 K): 0.00606
- solubility (mole fraction) (in methanol, 290.65 K): 0.00653
- solubility (mole fraction) (in methanol, 293.15 K): 0.00701
- solubility (mole fraction) (in methanol, 295.65 K): 0.0073
- solubility (mole fraction) (in methanol, 298.15 K): 0.00796
- solubility (mole fraction) (in methanol, 300.65 K): 0.00837
- solubility (mole fraction) (in methanol, 303.15 K): 0.00883
- solubility (mole fraction) (in methanol, 305.65 K): 0.00916
- solubility (mole fraction) (in methanol, 308.15 K): 0.00971
- solubility (mole fraction) (in methanol, 310.65 K): 0.0103
- solubility (mole fraction) (in methanol, 313.15 K): 0.0117
- solubility (mole fraction) (in methanol, 315.65 K): 0.0134
- solubility (mole fraction) (in methanol, 318.15 K): 0.0156
- solubility (mole fraction) (in tert-butanol, 298.15 K): 0.0189
- solubility (mole fraction) (in tert-butanol, 300.65 K): 0.02
- solubility (mole fraction) (in tert-butanol, 303.15 K): 0.0225
- solubility (mole fraction) (in tert-butanol, 305.65 K): 0.0256
- solubility (mole fraction) (in tert-butanol, 308.15 K): 0.0279
- solubility (mole fraction) (in tert-butanol, 310.65 K): 0.0298
- solubility (mole fraction) (in tert-butanol, 313.15 K): 0.0319
- solubility (mole fraction) (in tert-butanol, 315.65 K): 0.0353
- solubility (mole fraction) (in tert-butanol, 318.15 K): 0.0389
